The values that follow come from PubChem BioAssay AID1259407 (Chemical Carcinogenesis Research Information System (CCRIS), 2018).

Active and inactive are the calls of the source. No rule for the calls is given here.

The series has as its system CCRIS mutagenicity, Ames/micronucleus/aberration tests. The experiment in a line: CCRIS mutagenicity studies. From the text:
The CCRIS database contains chemical records with carcinogenicity, mutagenicity, tumor promotion, and tumor inhibition test results. It was developed by the National Cancer Institute (NCI). Data are derived from studies cited in primary journals, current awareness tools, NCI reports, and other sources. Test results have been reviewed by experts in carcinogenesis and mutagenesis.
CCRIS provides historical information from the years 1985 - 2011. It is no longer updated.
This is an archive assay for CCRIS mutagenicity studies.

Setting [1] is: Test System: AMES SALMONELLA TYPHIMURIUM, Strain/Indicator: TA98, Metabolic Activation: NONE, Method: STANDARD PLATE.
[2] abbreviates: Test System: AMES SALMONELLA TYPHIMURIUM, Strain/Indicator: TA100, Metabolic Activation: NONE, Method: STANDARD PLATE.

With `Cn1c(N)nc2c3cnccc3ccc21`, where the note is “Test System: AMES SALMONELLA TYPHIMURIUM, Strain/Indicator: TA98, Metabolic Activation: RAT, LIVER, S-9, AROCLOR 1254, Method: STANDARD PLATE”, the mutagenic call is “active; positive”.

Regarding `CC(=O)OCCCCONC(=O)c1ccccc1`, the mutagenic call is “active; positive” under setting [1]; “active; positive” under setting [2]; “active; positive” (Test System: AMES SALMONELLA TYPHIMURIUM, Strain/Indicator: TA100, Metabolic Activation: RAT,S-9, AROCLOR, Method: STANDARD PLATE).

`O=[N+]([O-])c1ccc2ccc3cc4c(c5ccc1c2c35)[C@H](O)[C@@H](O)C=C4`: the mutagenic call is “active; positive” (Test System: AMES SALMONELLA TYPHIMURIUM, Strain/Indicator: TA98(1,8-DNP6), Metabolic Activation: NONE); “active; positive” (Test System: AMES SALMONELLA TYPHIMURIUM, Strain/Indicator: TA98(1,8-DNP6), Metabolic Activation: RAT, LIVER, S-9, AROCLOR 1254); “active; positive” (Test System: AMES SALMONELLA TYPHIMURIUM, Strain/Indicator: TA98(NR), Metabolic Activation: NONE); “active; positive” (Test System: AMES SALMONELLA TYPHIMURIUM, Strain/Indicator: TA98(NR), Metabolic Activation: RAT, LIVER, S-9, AROCLOR 1254); “active; positive” (Test System: AMES SALMONELLA TYPHIMURIUM, Strain/Indicator: TA98, Metabolic Activation: NONE); “active; positive” (Test System: AMES SALMONELLA TYPHIMURIUM, Strain/Indicator: TA98, Metabolic Activation: RAT, LIVER, S-9, AROCLOR 1254). For the same compound, the mutagenic call reads like this: (Test System: CHINESE HAMSTER OVARY, Strain/Indicator: CHO-K1-BH4 (HGPRT), Metabolic Activation: NONE) “inactive; negative”; (Test System: CHINESE HAMSTER OVARY, Strain/Indicator: CHO-K1-BH4 (HGPRT), Metabolic Activation: RAT, LIVER, S-9, 3-METHYLCHOLANTHRENE) “inactive; negative”.

In the case of `C(=NC1CCCCC1)=NC1CCCCC1`, the mutagenic call was “inactive; negative” (End Point: In vivo micronucleus, Test System: Bone marrow polychromatic erythrocytes, Species: Rat, Strain/Sex: F344/N/Male, Route: Intraperitoneal); “active; positive (significant increase in the frequency only at 3 mg/kg (p=0.003))” (End Point: In vivo micronucleus, Test System: Peripheral blood normochromatic erythrocytes, Species: Mouse, Strain/Sex: B6C3F1/ Female, Route: Dermal); “active; positive (results of trend test significant (p=0.003 but increase in frequency o” (End Point: In vivo micronucleus, Test System: Peripheral blood normochromatic erythrocytes, Species: Mouse, Strain/Sex: B6C3F1/ Male, Route: Dermal); “inactive; negative” (Test System: Ames Salmonella typhimurium, Strain/Indicator: TA97, Metabolic Activation: Hamster, liver S-9, Aroclor 1254, 10 and 30%, Method: Preincubation); “inactive; negative” (Test System: Ames Salmonella typhimurium, Strain/Indicator: TA97, Metabolic Activation: None, Method: Preincubation); “inactive; negative” (Test System: Ames Salmonella typhimurium, Strain/Indicator: TA97, Metabolic Activation: Rat, liver S-9, Aroclor 1254, 10 and 30%, Method: Preincubation). In addition, the mutagenic call is “inactive; negative” (Test System: Ames Salmonella typhimurium, Strain/Indicator: TA98, Metabolic Activation: Hamster, liver S-9, Aroclor 1254, 10 and 30%, Method: Preincubation); “inactive; negative” (Test System: Ames Salmonella typhimurium, Strain/Indicator: TA98, Metabolic Activation: None, Method: Preincubation); “inactive; negative” (Test System: Ames Salmonella typhimurium, Strain/Indicator: TA98, Metabolic Activation: Rat, liver S-9, Aroclor 1254, 10 and 30%, Method: Preincubation); “inactive; negative” (Test System: Ames Salmonella typhimurium, Strain/Indicator: TA100, Metabolic Activation: Hamster, liver S-9, Aroclor 1254, 10 and 30%, Method: Preincubation); “inactive; negative” (Test System: Ames Salmonella typhimurium, Strain/Indicator: TA100, Metabolic Activation: None, Method: Preincubation); “inactive; negative” (Test System: Ames Salmonella typhimurium, Strain/Indicator: TA100, Metabolic Activation: Rat, liver S-9, Aroclor 1254, 10 and 30%, Method: Preincubation). In addition, the mutagenic call (Test System: Ames Salmonella typhimurium, Strain/Indicator: TA1535, Metabolic Activation: Hamster, liver, S-9, Aroclor 1254, 10 and 30%, Method: Preincubation) was “inactive; negative”; the mutagenic call (Test System: Ames Salmonella typhimurium, Strain/Indicator: TA1535, Metabolic Activation: None, Method: Preincubation) is “inactive; negative”; the mutagenic call (Test System: Ames Salmonella typhimurium, Strain/Indicator: TA1535, Metabolic Activation: Rat, liver, S-9, Aroclor 1254, 10 and 30%, Method: Preincubation) is “inactive; negative”.

In the case of `O=C(CCl)Nc1snc2ccc(Cl)cc12`, the mutagenic call by setting is: under setting [1], “inactive; negative”; (Test System: AMES SALMONELLA TYPHIMURIUM, Strain/Indicator: TA98, Metabolic Activation: S-9, Method: STANDARD PLATE) “active; positive”; under setting [2], “inactive; negative”; (Test System: AMES SALMONELLA TYPHIMURIUM, Strain/Indicator: TA100, Metabolic Activation: S-9, Method: STANDARD PLATE) “active; positive”; (Test System: AMES SALMONELLA TYPHIMURIUM, Strain/Indicator: TA1535, Metabolic Activation: NONE, Method: STANDARD PLATE) “inactive; negative”; (Test System: AMES SALMONELLA TYPHIMURIUM, Strain/Indicator: TA1535, Metabolic Activation: S-9, Method: STANDARD PLATE) “inactive; negative”. Further, the mutagenic call is “active; positive” (Test System: AMES SALMONELLA TYPHIMURIUM, Strain/Indicator: TA1537, Metabolic Activation: NONE, Method: STANDARD PLATE) and “active; positive” (Test System: AMES SALMONELLA TYPHIMURIUM, Strain/Indicator: TA1537, Metabolic Activation: S-9, Method: STANDARD PLATE).
